# Measured values: paper PMC7497641, “Neurotropic activity and safety of methylene-cycloalkylacetate (MCA) derivative 3-(3-allyl-2-methylenecyclohexyl) propanoic acid” (ACS Chemical Neuroscience, 2020)
# Legend:
# [1] = target: Cholecystokinin Receptor A (CCKAR) (Homo sapiens, UniProt P32238); assay: SAFETYscan GPCR Calcium Flux; format: cell-based; conditions: read-out: RC50 (the source's name)
# [2] = target: 5-Hydroxy tryptamine (Serotonin) Receptor 2A (HTR2A) (Homo sapiens, UniProt P28223); assay: SAFETYscan GPCR Calcium Flux; format: cell-based
# [3] = target: 5-Hydroxy tryptamine (Serotonin) Receptor 2B (HTR2B) (Homo sapiens, UniProt P41595); assay: SAFETYscan GPCR Calcium Flux; format: cell-based
# [4] = target: T1, Cyclooxygenase 1 (COX 1) (Homo sapiens, UniProt P23219); assay: biochemical; conditions: Inhibitor, Enzymatic
# T1 construct: purchased BPS Bioscience
# [5] = target: T2, CAMK2α (Homo sapiens, UniProt Q9UQM7); assay: PhosphoSens CSox based kinase assay; format: biochemical; conditions: 5 μM HU-MCA-13
# T2 construct: amino acids 1-478, Carna (cat. & lot #: 02)
# Excerpt: (§1) The initial focus was to measure the modulatory activity in vitro of MCA-13 on protein kinases which were reported to be involved in induction of neurite outgrowth.[18],[43] To do this, we took advantage of a powerful method to measure the activity of recombinant protein kinases using a homogeneous and continuous (kinetic) format, where the level of chelation-enhanced fluorescence (CHEF) is directly proportional to the amount of phosphorylated, real-time sensors consisting of sulfonamido-oxine (Sox) chromophore linked to a peptide or protein substrates of selective kinases.[44] This assay is ideal for elucidating drug mechanism of action and is increasingly being applied earlier in the drug development workflow to address off target effects and/or the challenges and opportunities for next generation protein kinase inhibitors.[45] Since neurotrophins induce neurite outgrowth by activating the different tropomyosin kinase receptors (Trk), and small molecules agonists of Trk receptors can selectively activate Trks,[46] we first investigated the ability of HU-MCA-13 to modulate TRKA, TRKB and TRKC phosphorylation activities (Supporting Information, Figure S3-2). […] The TRKs constructs used in the assay contained only the intracellular kinase domain (amino acids 442–786) and therefore presently we cannot exclude that HU-MCA-13 may interact with the TRKs extracellular domain thereby inducing the conformational change required for the kinase domain activation. […] Moreover, no effects of HU-MCA-13were found on other kinases (ASK1, ERK2, JNK3, p38α, CDK5, KDR-VEGFR, AKT1, GSK3β, PDGFRβ, PKACα, PKC, CK1, IKKβ) which stimulate neurite outgrowth. Also, no effects were observed of HU-MCA-13 on kinases (EGFR, IGF1R, FGFR 1 and 2, CAMK2α,) which inhibit neurite outgrowth or calcineurin phosphatase which dephosphorylates the neurite outgrowth stimulatory protein, cofilin.[47]
# (§2) MCA-13 safety b y in vitro eval uati on usi ng Phos pho Sens®C Soxb ased kinase […]
# (§3) Method: Kinase Activity Measurements
# (§4) Kinase activity was measured continuously using the PhosphoSens®technology (AssayQuant Technologies Inc., Marlborough, MA) according to the manufacturers’ recommendations (http://www.assayquant.com/) . This one-step homogeneous assay use s chelation-enh anced fluorescence via optimized substrate sensors unique for each kinase, containing the unnatural fluorogenic amino-acid Sox.
# (§5) The following kinases which, upon stimulation or inhibition with small molecule modulators, induced neurite outgrowth, were obtained from different companies and were used in this study at the following concentrations: 2.
# (§6) 25 µL final reaction volume including : 2.5 µl Sox-based substrate (10 x), 17.5 µl reaction mix with AT P, 5.0 µL Kinase [5x in EDB (Enzyme Dilution Buffer : 20 mM TRIS, pH 8.0, 0.01% Brij -35, 0.1 mM EGTA, 5% Glycerol, 1 mM DTT, 1 mg/mL Bovine Serum Albumin]. 5-45 min preincubation (all except EDB/kinase) at 30 °C of substrate in reaction mix and ATP ensuring that the progress kinetic curve for the background fluorescence w as flat. Reaction was run at 30 °C for […]
# (§7) Final Reaction Conditions.
# (§8) Protein kinase activity was determined in 54 mM HEPES, pH 7.5 1 mM ATP 1.2 mM DTT (none in ASK1) 0.012% Brij-35 1% glycerol 0.2 mg/ml BSA 0.52 mM EGTA (none in assays of CAMK2α, PKCε, PKCι, Calcineurin A/B) 140 µM phosphatidylserine/3.8 µM diacylglycerol (PKCε, PKCι only) 5 ng/µl calmodulin/0.4 mM CaCl2 (CAMK2α, Calcineurin A/B only) 10 mM […]
# (§9) IKKβ, AKT1, GSK3β, PKCε, PKCι, PKACα, KDR, CK1δ, EGFR, ASK1, IGF1R, CAMK2α, DLK, FGFR2, FGFR1) in the presence or absence of 5 µ M H U-MCA-13 test compound. All components e xcept enzyme were equilibrated to 30 °C prior to setting up reactions run in Corning, 384-well, white flat round bottom polystyrene NBS microplates (Cat. #3824) after sealing using optically-clear adhesive film [TopSealA -Plus plate seal, PerkinElmer (Cat. #6050185)], applied with a roller to eliminate evaporation and resulting drift. Europium was added to a final […]
# [6] = target: T3, CDK5 (Homo sapiens, UniProt Q00535); assay: PhosphoSens CSox based kinase assay; format: biochemical; conditions: 5 μM HU-MCA-13
# T3 construct: CDK5/p25, amino acids 1 -292/99 -307, Carna; purchased Carna 04-106
# Excerpt: as §1, §2, §3, §4, §5, §6, §7, §8, §9
# [7] = target: T4, FGFR 1 (Homo sapiens, UniProt P11362); assay: PhosphoSens CSox based kinase assay; format: biochemical; conditions: 5 μM HU-MCA-13
# T4 construct: 396-820, Carna (cat. & lot #: 08); purchased Carna 08-133
# Excerpt: as §1, §2, §3, §4, §5, §6, §7, §8, §9
# [8] = target: T5, FGFR 2 (Homo sapiens, UniProt P21802); assay: PhosphoSens CSox based kinase assay; format: biochemical; conditions: 5 μM HU-MCA-13
# T5 construct: purchased Carna 08-134
# Excerpt: as §1, §2, §3, §4, §5, §6, §7, §8, §9
# [9] = target: T6, GSK3β (Homo sapiens, UniProt P49841); assay: PhosphoSens CSox based kinase assay; format: biochemical; conditions: 5 μM HU-MCA-13
# T6 construct: GSK3β, amino acids 1 -420, Carna (cat. & lot #: 04-141/13CBS-; purchased Carna 04-141
# Excerpt: as §1, §2, §3, §4, §5, §6, §7, §8, §9
# [10] = target: T7, KDR-VEGFR (Homo sapiens, UniProt P35968); assay: PhosphoSens CSox based kinase assay; format: biochemical; conditions: 5 μM HU-MCA-13
# T7 construct: KDR, amino acids 790 -1356, Carna (cat. & lot #: 08 -191,; purchased Carna 08-191
# Excerpt: as §1, §2, §3, §4, §5, §6, §7, §8, §9
# [11] = target: T8, TRKA (Homo sapiens, UniProt P04629); assay: PhosphoSens CSox based kinase assay; format: biochemical; conditions: 5 μM HU-MCA-13; intracellular kinase domain
# T8 construct: purchased BPS Bio 40280 (lot 151113G)
# Excerpt: as §1, §2, §3, §4, §5, §6, §7, §8, §9
# [12] = target: T9, TRKC (Homo sapiens, UniProt Q16288); assay: PhosphoSens CSox based kinase assay; format: biochemical; conditions: 5 μM HU-MCA-13; no effect on initial rate, small delay in later stage of progress curve
# T9 construct: TRKC, amino acids 45 6-825, BPS Bio; purchased BPS Bio 40282 (lot 140205-G2)
# Excerpt: as §1, §2, §3, §4, §5, §6, §7, §8, §9
# Cholecystokinin Receptor A (CCKAR), sequence (P32238 whole entry): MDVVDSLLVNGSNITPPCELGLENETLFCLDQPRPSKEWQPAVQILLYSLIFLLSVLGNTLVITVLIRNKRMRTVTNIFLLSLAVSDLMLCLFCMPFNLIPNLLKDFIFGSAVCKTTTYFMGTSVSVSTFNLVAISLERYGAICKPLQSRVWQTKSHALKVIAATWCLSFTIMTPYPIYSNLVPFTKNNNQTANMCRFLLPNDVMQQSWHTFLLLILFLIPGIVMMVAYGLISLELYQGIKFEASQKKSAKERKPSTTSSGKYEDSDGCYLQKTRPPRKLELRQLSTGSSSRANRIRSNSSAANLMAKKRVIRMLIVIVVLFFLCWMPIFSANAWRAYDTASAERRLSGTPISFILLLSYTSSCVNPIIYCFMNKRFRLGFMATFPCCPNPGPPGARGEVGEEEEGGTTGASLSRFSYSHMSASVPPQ
# 5-Hydroxy tryptamine (Serotonin) Receptor 2A (HTR2A), sequence (P28223 whole entry): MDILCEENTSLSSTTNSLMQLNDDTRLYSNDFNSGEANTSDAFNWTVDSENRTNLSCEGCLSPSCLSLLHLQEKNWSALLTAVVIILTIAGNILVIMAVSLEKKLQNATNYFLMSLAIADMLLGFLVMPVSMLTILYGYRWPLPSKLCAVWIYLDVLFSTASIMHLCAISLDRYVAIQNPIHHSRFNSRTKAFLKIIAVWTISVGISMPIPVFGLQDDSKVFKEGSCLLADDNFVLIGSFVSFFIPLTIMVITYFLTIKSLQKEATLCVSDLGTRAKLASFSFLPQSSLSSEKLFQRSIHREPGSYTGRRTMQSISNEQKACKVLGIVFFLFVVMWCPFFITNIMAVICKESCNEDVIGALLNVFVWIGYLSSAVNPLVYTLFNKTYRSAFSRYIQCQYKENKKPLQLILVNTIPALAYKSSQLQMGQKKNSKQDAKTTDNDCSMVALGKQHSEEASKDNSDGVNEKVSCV
# T1 sequence (P23219 24-599): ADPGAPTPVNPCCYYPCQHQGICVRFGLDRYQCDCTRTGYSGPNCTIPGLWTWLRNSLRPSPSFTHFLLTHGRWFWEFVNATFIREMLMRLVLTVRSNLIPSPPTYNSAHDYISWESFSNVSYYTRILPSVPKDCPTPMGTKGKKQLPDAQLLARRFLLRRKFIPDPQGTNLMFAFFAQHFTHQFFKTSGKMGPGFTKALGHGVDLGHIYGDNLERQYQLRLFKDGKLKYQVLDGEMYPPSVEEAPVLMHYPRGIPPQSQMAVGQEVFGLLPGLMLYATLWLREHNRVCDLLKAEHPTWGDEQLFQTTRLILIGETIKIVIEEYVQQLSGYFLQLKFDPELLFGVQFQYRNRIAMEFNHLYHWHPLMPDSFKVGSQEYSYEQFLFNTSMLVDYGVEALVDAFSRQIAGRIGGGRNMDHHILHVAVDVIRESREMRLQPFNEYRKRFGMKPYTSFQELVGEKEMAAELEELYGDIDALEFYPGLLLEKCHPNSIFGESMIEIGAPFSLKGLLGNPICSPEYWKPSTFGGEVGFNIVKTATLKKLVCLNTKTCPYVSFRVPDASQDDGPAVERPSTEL
# 5-Hydroxy tryptamine (Serotonin) Receptor 2B (HTR2B), sequence (P41595 whole entry): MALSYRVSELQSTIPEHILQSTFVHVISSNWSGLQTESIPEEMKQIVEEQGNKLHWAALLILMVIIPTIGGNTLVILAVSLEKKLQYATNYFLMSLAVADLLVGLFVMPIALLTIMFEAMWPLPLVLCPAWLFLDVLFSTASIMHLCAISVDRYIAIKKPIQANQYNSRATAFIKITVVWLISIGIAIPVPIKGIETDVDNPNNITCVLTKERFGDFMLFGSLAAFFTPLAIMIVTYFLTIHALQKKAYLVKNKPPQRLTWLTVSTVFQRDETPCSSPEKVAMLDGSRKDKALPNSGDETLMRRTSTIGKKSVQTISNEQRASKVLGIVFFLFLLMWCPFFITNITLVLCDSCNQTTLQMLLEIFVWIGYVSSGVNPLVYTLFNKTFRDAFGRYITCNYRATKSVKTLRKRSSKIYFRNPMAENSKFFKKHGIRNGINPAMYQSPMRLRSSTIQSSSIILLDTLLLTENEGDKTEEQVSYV
# T7 sequence (P35968 790-1356): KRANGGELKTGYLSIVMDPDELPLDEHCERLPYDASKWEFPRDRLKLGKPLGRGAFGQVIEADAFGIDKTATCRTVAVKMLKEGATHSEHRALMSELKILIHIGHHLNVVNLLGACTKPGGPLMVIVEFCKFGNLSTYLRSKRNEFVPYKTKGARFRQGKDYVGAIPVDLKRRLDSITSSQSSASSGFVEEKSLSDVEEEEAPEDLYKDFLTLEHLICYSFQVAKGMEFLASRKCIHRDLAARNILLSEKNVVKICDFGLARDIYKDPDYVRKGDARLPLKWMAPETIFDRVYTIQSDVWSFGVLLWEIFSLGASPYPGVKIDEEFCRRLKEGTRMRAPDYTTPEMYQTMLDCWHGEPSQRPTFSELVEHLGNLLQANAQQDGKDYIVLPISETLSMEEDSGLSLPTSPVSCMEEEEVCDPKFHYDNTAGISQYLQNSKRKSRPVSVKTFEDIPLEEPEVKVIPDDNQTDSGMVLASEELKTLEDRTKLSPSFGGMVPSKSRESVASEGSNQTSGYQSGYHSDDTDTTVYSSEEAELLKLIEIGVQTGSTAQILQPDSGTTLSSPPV
# T6 sequence (P49841 whole entry, the tested form may be a part): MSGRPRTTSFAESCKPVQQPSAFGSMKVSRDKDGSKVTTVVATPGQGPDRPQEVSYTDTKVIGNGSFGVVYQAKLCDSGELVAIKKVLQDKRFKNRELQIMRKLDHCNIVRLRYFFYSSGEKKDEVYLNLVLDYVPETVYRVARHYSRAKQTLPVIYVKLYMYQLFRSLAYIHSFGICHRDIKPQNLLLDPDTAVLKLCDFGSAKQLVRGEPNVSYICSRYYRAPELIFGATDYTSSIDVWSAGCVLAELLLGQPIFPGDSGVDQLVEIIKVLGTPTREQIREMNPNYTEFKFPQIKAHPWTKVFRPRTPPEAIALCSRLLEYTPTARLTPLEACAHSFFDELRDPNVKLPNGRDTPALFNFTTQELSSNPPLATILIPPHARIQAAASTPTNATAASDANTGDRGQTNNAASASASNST
# T5 sequence (P21802 399-821): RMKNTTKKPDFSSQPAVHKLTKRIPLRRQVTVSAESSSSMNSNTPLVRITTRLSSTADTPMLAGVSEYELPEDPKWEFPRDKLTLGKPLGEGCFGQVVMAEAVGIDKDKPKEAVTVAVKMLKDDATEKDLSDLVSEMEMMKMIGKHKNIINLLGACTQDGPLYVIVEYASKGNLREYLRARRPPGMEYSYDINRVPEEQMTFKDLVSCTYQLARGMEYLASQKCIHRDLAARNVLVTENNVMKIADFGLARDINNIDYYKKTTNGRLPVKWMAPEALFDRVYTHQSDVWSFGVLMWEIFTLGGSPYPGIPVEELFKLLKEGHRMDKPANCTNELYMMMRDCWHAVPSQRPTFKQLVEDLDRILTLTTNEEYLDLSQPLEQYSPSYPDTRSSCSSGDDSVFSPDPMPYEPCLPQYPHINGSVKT
# T4 sequence (P11362 398-822): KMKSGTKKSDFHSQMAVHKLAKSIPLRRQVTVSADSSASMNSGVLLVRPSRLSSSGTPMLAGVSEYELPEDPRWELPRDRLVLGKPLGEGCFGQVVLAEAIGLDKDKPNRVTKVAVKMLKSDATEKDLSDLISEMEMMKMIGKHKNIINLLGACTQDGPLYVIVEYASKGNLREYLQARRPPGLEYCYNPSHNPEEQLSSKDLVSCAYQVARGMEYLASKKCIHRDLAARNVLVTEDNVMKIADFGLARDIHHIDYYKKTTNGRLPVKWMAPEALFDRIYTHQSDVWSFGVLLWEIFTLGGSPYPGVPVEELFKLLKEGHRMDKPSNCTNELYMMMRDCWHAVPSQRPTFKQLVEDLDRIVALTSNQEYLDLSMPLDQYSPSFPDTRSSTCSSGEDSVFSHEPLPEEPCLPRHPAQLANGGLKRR
# T8 sequence (P04629 442-796): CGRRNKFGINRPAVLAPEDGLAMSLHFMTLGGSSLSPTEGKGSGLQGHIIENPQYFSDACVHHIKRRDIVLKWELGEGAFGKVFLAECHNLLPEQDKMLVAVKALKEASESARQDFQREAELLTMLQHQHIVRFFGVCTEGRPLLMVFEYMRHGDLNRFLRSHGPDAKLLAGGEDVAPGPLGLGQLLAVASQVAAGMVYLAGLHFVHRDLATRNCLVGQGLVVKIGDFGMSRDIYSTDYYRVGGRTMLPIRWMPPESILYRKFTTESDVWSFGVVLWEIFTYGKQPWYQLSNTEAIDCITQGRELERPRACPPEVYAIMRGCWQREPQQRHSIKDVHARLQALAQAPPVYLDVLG
# T3 sequence (Q00535 whole entry, the tested form may be a part): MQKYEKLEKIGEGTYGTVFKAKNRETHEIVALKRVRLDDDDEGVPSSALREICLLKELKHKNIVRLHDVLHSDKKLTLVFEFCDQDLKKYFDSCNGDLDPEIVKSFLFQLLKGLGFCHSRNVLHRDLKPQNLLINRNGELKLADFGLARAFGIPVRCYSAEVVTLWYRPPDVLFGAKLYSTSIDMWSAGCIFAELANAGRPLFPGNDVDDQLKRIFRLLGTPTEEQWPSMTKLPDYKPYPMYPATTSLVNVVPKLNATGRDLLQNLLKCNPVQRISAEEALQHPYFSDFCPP
# T3 sequence (Q15078 99-307 partner limits assumed): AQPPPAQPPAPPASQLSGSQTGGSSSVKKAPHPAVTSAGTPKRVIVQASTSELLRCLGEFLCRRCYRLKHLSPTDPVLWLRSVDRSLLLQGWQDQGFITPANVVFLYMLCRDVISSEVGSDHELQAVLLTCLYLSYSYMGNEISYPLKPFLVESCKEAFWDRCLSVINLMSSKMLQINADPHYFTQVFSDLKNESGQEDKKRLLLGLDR
compound,measurement,setting,value
"C=CCC1CCCC(CCC(=O)O)C1=C (stereo not shown) [HU-MCA-13, 3-(3-allyl-2-methylenecyclohexyl)propanoic acid]",EC50,[1]; Agonist,> 10 µM
same,IC50,[1]; Antagonist,> 10 µM
same,EC50,[2],> 10 µM
same,IC50,[2],> 10 µM
same,EC50,[3],> 10 µM
same,IC50,[3],> 10 µM
same,inhibition at 10 µM,"[4]; 10 μM, read-out: MCA-13 Max. Responce",25%
same,IC50,[4]; read-out: RC50 (the source's name),> 10 µM
same,effect on kinase activity,[5],no effects
same,effect on kinase activity,[6],no effects
same,effect on kinase activity,[7],no effects
same,effect on kinase activity,[8],no effects
same,effect on kinase activity,[9],no effects
same,effect on kinase activity,[10],no effects
same,modulation of phosphorylation activity,[11],no effects
same,modulation of phosphorylation activity,[12],slight inhibitory effect
